Data published in ChEMBL document CHEMBL1136921, “Benzylguanidines and other galegine analogues inducing weight loss in mice” (J Med Chem, 2009).

Columns and labels:
Mus musculus [1] = assay: Antiobesity activity in ob/ob mouse model assessed as change in average daily weight at 0.26 mmol/kg/day administered through diet for 28 days relative to time-matched control; type: functional
Mus musculus [2] = assay: Hypoglycemic activity in lean normal BALB/c mouse assessed as blood glucose level at 0.54 mmol/kg/day administered through diet for 7 days relative to time-matched control; type: functional
Mus musculus [3] = assay: Antiobesity activity in lean normal BALB/c mouse assessed as change in average daily weight at 0.54 mmol/kg/day administered through diet for 7 days relative to time-matched control; type: functional
Mus musculus [4] = assay: Hypoglycemic activity in ob/ob mouse model assessed as blood glucose level at 0.26 mmol/kg/day administered through diet for 28 days relative to time-matched control; type: functional
Mus musculus [5] = assay: Antiobesity activity in lean normal BALB/c mouse assessed as change in average daily food intake at 0.54 mmol/kg/day administered through diet for 7 days relative to time-matched control; type: functional
Mus musculus [6] = assay: Toxicity in lean normal BALB/c mouse assessed as overt signs of behavioural changes at equimolar dose of 0.5 mmol/kg galegine administered daily through diet for 7 days; type: organism-based; conditions: in vivo, po, 168 h
Mus musculus [7] = assay: Antiobesity activity in ob/ob mouse model assessed as change in average daily food intake at 0.26 mmol/kg/day administered through diet for 28 days relative to time-matched control; type: functional
Mus musculus [8] = assay: Antiobesity activity in high fat diet-induced obese BALB/c mouse model assessed as change in average daily body weight at 0.43 mmol/kg/day administered through diet for 28 days relative to time-matched control; type: functional
Mus musculus [9] = assay: Antiobesity activity in high fat diet-induced obese BALB/c mouse model assessed as change in average daily food intake at 0.43 mmol/kg/day administered through diet for 28 days relative to time-matched control; type: functional
Mus musculus [10] = assay: Hypoglycemic activity in high fat diet-induced obese BALB/c mouse model assessed as blood glucose level at 0.43 mmol/kg/day administered through diet for 28 days relative to time-matched control; type: functional
[11] = Metabolic stability in ob/ob mouse liver microsomes assessed as oxidative hydroxylation at 50 uM after 45 mins by HPLC-MS analysis; type: ADME, Microsome; conditions: 0.75 h
Mus musculus [12] = assay: Antiobesity activity in high fat diet-induced obese BALB/c mouse model assessed as change in average daily body weight at 0.45 mmol/kg/day administered through diet for 28 days relative to time-matched control; type: functional
Mus musculus [13] = assay: Antiobesity activity in lean normal BALB/c mouse assessed as change in average daily food intake at 0.62 mmol/kg/day administered through diet for 7 days relative to time-matched control; type: functional
Mus musculus [14] = assay: Antiobesity activity in lean normal BALB/c mouse assessed as change in average daily weight at 0.62 mmol/kg/day administered through diet for 7 days relative to time-matched control; type: functional
Mus musculus [15] = assay: Antiobesity activity in ob/ob mouse model assessed as change in average daily weight at 0.27 mmol/kg/day administered through diet for 28 days relative to time-matched control; type: functional
Mus musculus [16] = assay: Antiobesity activity in high fat diet-induced obese BALB/c mouse model assessed as change in average daily food intake at 0.45 mmol/kg/day administered through diet for 28 days relative to time-matched control; type: functional
Mus musculus [17] = assay: Hypoglycemic activity in lean normal BALB/c mouse assessed as blood glucose level at 0.62 mmol/kg/day administered through diet for 7 days relative to time-matched control; type: functional
Mus musculus [18] = assay: Antiobesity activity in ob/ob mouse model assessed as change in average daily food intake at 0.27 mmol/kg/day administered through diet for 28 days relative to time-matched control; type: functional
Mus musculus [19] = assay: Hypoglycemic activity in ob/ob mouse model assessed as blood glucose level at 0.27 mmol/kg/day administered through diet for 28 days relative to time-matched control; type: functional
Mus musculus [20] = assay: Hypoglycemic activity in high fat diet-induced obese BALB/c mouse model assessed as blood glucose level at 0.45 mmol/kg/day administered through diet for 28 days relative to time-matched control; type: functional
Mus musculus [21] = assay: Antiobesity activity in lean normal BALB/c mouse assessed as change in average daily food intake at 0.59 mmol/kg/day administered through diet for 7 days relative to time-matched control; type: functional
Mus musculus [22] = assay: Antiobesity activity in ob/ob mouse model assessed as change in average daily food intake at 0.24 mmol/kg/day administered through diet for 28 days relative to time-matched control; type: functional
Mus musculus [23] = assay: Hypoglycemic activity in high fat diet-induced obese BALB/c mouse model assessed as blood glucose level at 0.42 mmol/kg/day administered through diet for 28 days relative to time-matched control; type: functional
Mus musculus [24] = assay: Antiobesity activity in high fat diet-induced obese BALB/c mouse model assessed as change in average daily body weight at 0.42 mmol/kg/day administered through diet for 28 days relative to time-matched control; type: functional
Mus musculus [25] = assay: Hypoglycemic activity in lean normal BALB/c mouse assessed as blood glucose level at 0.59 mmol/kg/day administered through diet for 7 days relative to time-matched control; type: functional
Mus musculus [26] = assay: Antiobesity activity in lean normal BALB/c mouse assessed as change in average daily weight at 0.59 mmol/kg/day administered through diet for 7 days relative to time-matched control; type: functional
Mus musculus [27] = assay: Antiobesity activity in ob/ob mouse model assessed as change in average daily weight at 0.24 mmol/kg/day administered through diet for 28 days relative to time-matched control; type: functional
Mus musculus [28] = assay: Hypoglycemic activity in ob/ob mouse model assessed as blood glucose level at 0.24 mmol/kg/day administered through diet for 28 days relative to time-matched control; type: functional
Mus musculus [29] = assay: Antiobesity activity in high fat diet-induced obese BALB/c mouse model assessed as change in average daily food intake at 0.42 mmol/kg/day administered through diet for 28 days relative to time-matched control; type: functional

Work on N=C(N)NCc1ccccc1 yielded an Activity (Mus musculus [1]) of -6.8%, an Activity (Mus musculus [2]) of 60% and an Activity (Mus musculus [3]) of -10.4%. The Activity (Mus musculus [4]) was 82%, the Activity (Mus musculus [5]) was -28.1% and the Activity (Mus musculus [6]) was “Non-toxic”. It also gave an Activity (Mus musculus [7]) of -29.3%, an Activity (Mus musculus [8]) of -10.6% and an Activity (Mus musculus [9]) of -14.9%. The Activity (Mus musculus [10]) was 90% and the Activity [11] was “Stable”.
Work on N=C(N)NCc1ccc(F)cc1 yielded an Activity (Mus musculus [12]) of -7.8%, an Activity (Mus musculus [13]) of -27.8% and an Activity (Mus musculus [14]) of -14.7%. The Activity (Mus musculus [15]) was -8.7%, the Activity (Mus musculus [16]) was -9.8% and the Activity (Mus musculus [17]) was 56%. The Activity (Mus musculus [6]) was “Non-toxic”, the Activity (Mus musculus [18]) was -26.8% and the Activity (Mus musculus [19]) was 102%. It also gave an Activity (Mus musculus [20]) of 93%.
For N=C(N)NCc1ccc(Cl)cc1, the Activity (Mus musculus [21]) was -34.7%, the Activity (Mus musculus [22]) was -38.5% and the Activity (Mus musculus [23]) was 94%. For the same compound, the Activity (Mus musculus [24]) was -7.3%, the Activity (Mus musculus [25]) was 59% and the Activity (Mus musculus [26]) was -19.7%. For the same compound, the Activity (Mus musculus [6]) was “Non-toxic”, the Activity (Mus musculus [27]) was -11% and the Activity (Mus musculus [28]) was 71%. The Activity (Mus musculus [29]) was -15.6%.
